The record followed here is ChEMBL document CHEMBL1201862, “PubChem BioAssay data set” (2004).

Assay in all cases: NCI-60 cell line screen, 48 h
Experiment [1] deals with OVCAR-4.
Experiment [2] relates to A498.
Experiment [3] concerns U-251.
For experiment [4], the system named is SF-295.
For experiment [5], the system named is SW-620.
Experiment [6] has as its system OVCAR-3.
For experiment [7], the system named is SF-539.
Experiment [8] deals with OVCAR-5.
Experiment [9] relates to HT-29.
Experiment [10] relates to HCC 2998.
The subject of experiment [11] is NCI-H522.
In experiment [12] the test system is Malme-3M.
The test system of experiment [13] is ACHN.
Experiment [14] concerns SK-OV-3.
The test system of experiment [15] is MOLT-4.
Experiment [16] deals with HOP-62.
Experiment [17] concerns SR.
Experiment [18] relates to CAKI-1.

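48-hour exposure; five concentrations; linearly interpolated endpoints. GI50 marks 50% less growth.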 Activity calls are given as the source filed them. Cut-off read from the data, not from the text of the source: active = GI50 up to about 1.1 µM and inactive = higher.

Regarding `CCNc1nc2c(=O)n(C)c(=O)n(C)c2s1`, the GI50 in [1], in experiment [2], in experiment [3], in experiment [4], in experiment [5] and in experiment [6] was > 100 µM (inactive) in each case. The GI50 in experiment [7], in experiment [8], in experiment [9], in [10], in experiment [11] and in [12] was > 100 µM (inactive) throughout. The GI50 in experiment [13], in [14], in [15] and in experiment [16] was > 100 µM (inactive) in each case.

On to `O=C(/C=C/c1ccc(OCCCOc2ccc(/C=C/C(=O)c3ccc(Cl)cc3)cc2)cc1)c1ccc(Cl)cc1`, for which the GI50 in experiment [1], in experiment [3], in experiment [4], in experiment [5], in [6] and in experiment [17] was > 100 µM (inactive) each time. The GI50 in experiment [7], in experiment [8], in experiment [9], in [10], in experiment [11] and in [12] was > 100 µM (inactive) throughout. In addition, the GI50 in experiment [13], in [14], in [15], in experiment [18] and in experiment [16] was > 100 µM (inactive) in each case.

Consider `CC1=CC(=O)N(c2c(C)cccc2Cl)C(C)N1` (stereo unspecified), for which the GI50 in experiment [1], in [2], in experiment [3], in experiment [4], in experiment [5] and in experiment [6] was > 100 µM (inactive) throughout. The GI50 in experiment [7], in experiment [8], in [9], in experiment [10], in experiment [11] and in experiment [12] was > 100 µM (inactive) in each case. Moreover, the GI50 in experiment [13], in experiment [14], in [15], in experiment [18] and in experiment [16] was > 100 µM (inactive) throughout.

For the molecule `C=C1C=CC2(Br)OC3CC(C)(Cl)C(Br)CC13C2(C)C` (stereo unspecified), the GI50 in [1] was 30.1 µM (inactive); in experiment [2], 22.3 µM (inactive); in experiment [3], 18.8 µM (inactive); in [4] it was 20.4 µM (inactive); in experiment [5] it was 24.2 µM (inactive); in experiment [6], 20 µM (inactive). The GI50 was 18.5 µM (inactive) in [7]; 17.1 µM (inactive) in experiment [8]; 18.1 µM (inactive) in experiment [9]; 20.4 µM (inactive) in experiment [10]; 15.4 µM (inactive) in experiment [11]; 18.2 µM (inactive) in experiment [12]. Moreover, the GI50 in experiment [13] is 23.6 µM (inactive); in [14] it was 30.5 µM (inactive); in experiment [15] it was 16.9 µM (inactive); in experiment [18], 29.5 µM (inactive); in experiment [16], 23.1 µM (inactive).

On to `O=C(c1ccccc1)C(c1ccccc1)C1(O)C(=O)Nc2ccc([N+](=O)[O-])cc21` (stereo unspecified), for which the GI50 is 64.6 µM (inactive) in experiment [1]; > 100 µM (inactive) in experiment [2]; > 100 µM (inactive) in experiment [3]; > 100 µM (inactive) in [5]; > 100 µM (inactive) in [7]; > 100 µM (inactive) in experiment [8]. Moreover, the GI50 was > 100 µM (inactive) in experiment [10]; 74 µM (inactive) in experiment [11]; > 100 µM (inactive) in experiment [12]; 33 µM (inactive) in [13]; 19.4 µM (inactive) in experiment [14]; 83.2 µM (inactive) in experiment [15]. Moreover, the GI50 in experiment [18] and in experiment [16] was > 100 µM (inactive) in each case.

For `[N-]=[N+]=N/C1=C/CCCCC(=O)C1`, the GI50 is > 100 µM (inactive) in experiment [1]; > 100 µM (inactive) in experiment [5]; > 100 µM (inactive) in experiment [8]; > 100 µM (inactive) in experiment [9]; > 100 µM (inactive) in experiment [10]; 71.1 µM (inactive) in experiment [11]. The GI50 in [12], in [14], in experiment [15], in experiment [18] and in experiment [16] was > 100 µM (inactive) throughout.

Take `[O-][n+]1c2cc3c(cc2[n+]([O-])c2c(O)cccc21)CN(CCN1CCOCC1)C3`: the GI50 in experiment [1] was 62.2 µM (inactive); in experiment [2] it was 44.6 µM (inactive); in [3], 12.1 µM (inactive); in [4], 13.1 µM (inactive); in [6], 18.7 µM (inactive); in experiment [17], 2.48 µM (inactive). Besides, the GI50 in [8] is 38 µM (inactive); in experiment [9], 16 µM (inactive); in experiment [11] it was 5.36 µM (inactive); in [12], 48.9 µM (inactive); in experiment [13], 5.83 µM (inactive); in [14] it was 17.1 µM (inactive). Further, the GI50 in [15] is 4.43 µM (inactive); in experiment [18], 48.9 µM (inactive).

Consider `O=C(CC1(O)C(=O)Nc2ccc([N+](=O)[O-])cc21)c1ccc(Br)cc1` (stereo unspecified), for which the GI50 in experiment [1] is 49.7 µM (inactive); in [2], 23.2 µM (inactive); in experiment [3] it was 22.3 µM (inactive); in experiment [4], 52.6 µM (inactive); in [5], > 10 µM (inactive); in experiment [6], 43 µM (inactive). Besides, the GI50 in experiment [7] was 59.4 µM (inactive); in experiment [8] it was > 100 µM (inactive); in [9] it was > 100 µM (inactive); in experiment [10], > 100 µM (inactive); in experiment [11], 19.6 µM (inactive); in [12] it was > 100 µM (inactive). The GI50 in [13] is 56.6 µM (inactive); in experiment [14], 25.1 µM (inactive); in [15], 35.8 µM (inactive); in experiment [16], > 100 µM (inactive).

In the case of `COC(OC)C(C)CC(=O)N(C)C` (stereo unspecified), the GI50 in experiment [1], in experiment [2], in experiment [3], in experiment [4], in [5] and in experiment [6] was > 100 µM (inactive) each time. Besides, the GI50 in experiment [7], in experiment [8], in experiment [9], in experiment [10], in experiment [13] and in experiment [14] was > 100 µM (inactive) in each case. Besides, the GI50 in [15] and in experiment [16] was > 100 µM (inactive) each time.

Consider `NC1=NC(=O)C(CC(=O)Nc2ccc(Cl)cc2Cl)S1` (stereo unspecified), for which the GI50 in experiment [1] is > 100 µM (inactive); in experiment [2] it was 57.4 µM (inactive); in experiment [3] it was > 100 µM (inactive); in experiment [4], > 100 µM (inactive); in experiment [5], > 100 µM (inactive); in experiment [6], > 100 µM (inactive). Further, the GI50 in experiment [7], in experiment [8], in experiment [9], in experiment [10], in experiment [12] and in [13] was > 100 µM (inactive) each time. Also, the GI50 in experiment [14] was > 100 µM (inactive); in experiment [15] it was 48.4 µM (inactive); in experiment [18], > 100 µM (inactive); in [16], > 100 µM (inactive).

In the case of `CC(=O)O[C@H]1C=CC23OC(=O)[C@]1(C)[C@H]2[C@H](C(=O)O)C12CC(=O)[C@@](CO)(CC[C@H]13)C2`, the GI50 in experiment [1], in experiment [3], in experiment [4], in experiment [5], in [6] and in [17] was > 100 µM (inactive) each time. Also, the GI50 in [7], in [8], in experiment [9], in experiment [10], in [11] and in experiment [13] was > 100 µM (inactive) each time. In addition, the GI50 in experiment [14], in experiment [15], in [18] and in experiment [16] was > 100 µM (inactive) throughout.

As to `CCOC(=O)C1C=C2O[C@@H]3OC4(CCCCC4)O[C@@H]3C2C2C(=O)CCC(=O)[C@@]12C(=O)OC` (stereo partly specified), the GI50 in [1] is > 100 µM (inactive); in [2], > 100 µM (inactive); in [3] it was > 100 µM (inactive); in experiment [4] it was > 100 µM (inactive); in experiment [5], > 100 µM (inactive); in experiment [6] it was 82.4 µM (inactive). Also, the GI50 was > 100 µM (inactive) in experiment [8]; > 10 µM (inactive) in experiment [9]; > 100 µM (inactive) in experiment [10]; > 100 µM (inactive) in experiment [11]; > 100 µM (inactive) in experiment [12]; > 100 µM (inactive) in [13]. Further, the GI50 in [14], in experiment [15], in experiment [18] and in [16] was > 100 µM (inactive) each time.

In the case of `COc1cc2c(c(OC)c1OC)-c1ccc(SC)c(=O)cc1[C@@H](NCc1ccccc1[N+](=O)[O-])CC2`, the GI50 was 0.719 µM (active) in experiment [1]; 0.00417 µM (active) in experiment [2]; 0.0154 µM (active) in [3]; 0.00826 µM (active) in experiment [4]; 0.00333 µM (active) in [5]; 0.00428 µM (active) in experiment [6]. Moreover, the GI50 in [7] is 0.00525 µM (active); in experiment [8], 0.0216 µM (active); in [9] it was 0.00391 µM (active); in experiment [10], 0.0128 µM (active); in experiment [11], 0.011 µM (active); in [12] it was 0.00817 µM (active). Also, the GI50 in [13] was 0.0439 µM (active); in experiment [14] it was 0.0041 µM (active); in experiment [15] it was 0.0241 µM (active); in [18] it was 0.01 µM (active); in experiment [16] it was 0.0174 µM (active).
